Reference: US20220143179A1, “DRUG DELIVERY FOR COMBINATION OF EPIGENETIC MODULATION AND IMMUNE CHECKPOINT BLOCKADE” (NORTH CAROLINA STATE UNIVERSITY, priority 2019, published 2022)
Read-outs that look alike come from different tables or passages of the source.

Tested on: B16F10 melanoma cells
Assay: MTT assay, cytotoxicity of hypomethylating agents
Type: cell-based
Conditions: Mus musculus, read-out: IC50 against B16F10 melanoma cells
Method: First, MTT assays were conducted to compare the cytotoxicity among these agents and determine the appropriate concentration to induce the expression of TAAs.
B16F10 cells were cultured into 96-well plates at a density of 5×10^3 cells per well overnight. […] Finally, the rate of cell viability was calculated according to the absorbance at 560 nm by a plate reader (Power Wave XS, Bio-TEK, USA).

| Structure (SMILES) | IC50 (B16-F10, MTT, 72 h incubation) [µM] | IC50 (B16-F10, 72 h) [µM] |
| --- | --- | --- |
| O=c1ncccn1[C@@H]1O[C@H](CO)[C@@H](O)[C@H]1O [Zeb, Zebularine] | 69.2 | – |
| Nc1ncn([C@H]2C[C@H](O)[C@@H](CO)O2)c(=O)n1 [DAC, 5-Aza-2′-deoxycytidine] | – | 2.55 |
| Nc1nc(=O)n([C@H]2C[C@H](O)[C@@H](CO)O2)cc1F [5-F, 5-Fluoro-2′-deoxycytidine] | 1.05 | – |
| Nc1ncn([C@@H]2O[C@H](CO)[C@@H](O)[C@H]2O)c(=O)n1 [AC, 5-Azacytidine] | 49 | – |
